One data set concerns human colon cancer. Kind of data set: Human colon cancer model: mice orthotopically implanted with GFP-transfected colon cancer tumor fragments. In kind it is in vivo. Here is the method: A study testing Hb-FUdR in mice orthotopically implanted with tumor fragments derived from colon cancer cells (transfected with green fluorescence protein for in-life tumor visualization was conducted as follows:
(§1) Study design: Fifty (50) tumor-bearing mice were randomly divided into five groups with ten (10) mice per group. Animals (10 mice per group) were treated with Hb-FUdR at 6, 32, and 161 mg Hb/kg (0.15, 0.74, and 3.7 mg FUdR/kg) twice weekly via intravenous injection (tail vein) at 5 mL/kg. Control untreated animals were treated with PBS at 5 mL/kg. Control FUdR treated animals were treated with 3.7 mg FUdR/kg. Study endpoint: The study was terminated 47 days post tumor inoculation. All remaining mice in each group were sacrificed at this time point. All animals in the PBS treated group and approximately 50% of animals in other treated groups died before the study endpoint. Therefore, survival time between groups was considered one of the criteria to assess the efficacy of the test agents. Primary tumors were excised and weighted at necropsy for subsequent analysis.
The anti-tumor efficacy of Hb-FUdR against the implanted human colon cancer was evaluated by comparing the primary tumor sizes measured twenty-one days after treatment initiation, and the differences in survival time between the Hb-FUdR treated and PBS control groups.

On the set-up of data set [1]: species or system mice. The following applies: mouse, in vivo. On the procedure:
as §1
[…]. […] Other symptoms of related toxicity were absent by gross observation.

For a further data set, the system named is HCC. The conditions noted are these: SHARP trial; vs. 7.9 months; cited from earlier work.
Setting [2] is: Hb 0 mg/kg, FUdR 3.7 mg/kg (free drug), 9 mice evaluated.

Take `O=c1[nH]c(=O)n([C@H]2C[C@H](O)[C@@H](CO)O2)cc1F` [FUdR, floxuridine]: in the data set on human colon cancer (setting [2]), the “No. of mice with L.N. met.” value was 6 and the “No. of mice with liver met.” value stood at 4. In the data set with human colon cancer (Hb 0 mg/kg, FUdR 3.7 mg/kg (free drug), study terminated 47 days post tumor inoculation), this compound came in with a Mean survival time of 43.9 days. The same compound returned an Average tumor volume with human colon cancer (Hb 0 mg/kg, FUdR 3.7 mg/kg (free drug), twenty-one days after treatment initiation) of 254.58 ± 196.74 mm^3. Also, the “Survival time of the treated mice” value in the data set with human colon cancer (summary statement) is recorded as “significantly prolonged survival time”. In addition, the Toxicity entry in data set [1] is “without obvious toxicity”.

For `CNC(=O)c1cc(Oc2ccc(NC(=O)Nc3ccc(Cl)c(C(F)(F)F)c3)cc2)ccn1` [Sorafenib], in the data set on HCC, the Overall survival is 10.7 months.

Source of the values: patent publication US20230190947A1, “Hemoglobin-Targeted Drug Delivery For The Treatment of Cancer” (Therapure Biopharma Inc., priority 2016, published 2023).
